From patent US20150374784A1, “COMPOSITIONS AND METHODS FOR REDUCING GERM CELL DEATH” (Los Angeles Biomedical Research Institute at Harbor-UCLA …, priority 2014, published 2015)
Peptide text beside a SMILES is read from it.

What was measured:
B16 melanoma cells = format: cell-based
Excerpt: Furthermore, the autophagy induction of humanin may be related to its apparent effects of enhancing longevity observed in other systems.

in vivo = details: male, C57BL/6J, mouse, sc, 10 mg/kg BW
Experimental: The objective of this study was to investigate whether HNG has protective effect on sperm output after multiple doses of CP in mice. Thirty adult male mice (C57BL/6J) were randomized into 4 groups: 1) 5 as control; 2) 5 received daily subcutaneously injection of HNG (10 mg/kg BW); 3) 10 were given 6 doses of CP (150 mg/kg BW) intraperitoneally at 5-day intervals; 4) 10 received both HNG and CP. All mice were killed at 28 days. Plasma HNG and IGF-1 levels were measured by ELISAs. The cauda epididymal sperm count was performed using a hemocytometer.

Leydig cells = assay: Testosterone of cultured Leydig cells treated with ketoconazole; format: cell-based, rat; details: KTZ 10 mcg/ml, 4 hours, 34° C.
Experimental: Leydig cells were isolated based on a previously described procedure (Gao, et al., 1996; Klinefelter, et al., 1987; Salva, et al., 2001). Briefly, the testes were decapsulated, and then dissociated with collagenase, dispase, DNase and shaking for 15 min at 34° C. The seminiferous tubules were removed by filtration through 40 μm nylon mesh (BD Falcon, Franklin Lakes, N.J.). Leydig cells were then harvested after centrifugation and purified using a Percoll gradient (GE Healthcare, Uppsala, Sweden) and centrifugation (60 minutes at 20,000 g at 4° C.). Enriched Leydig cells were harvested at densities between 1.065 (red) and 1.075 (blue) g/cm^3 from the percoll gradient. These Leydig cells were washed by diluting the percoll and excluding residual germ cells and other cells using a BSA density gradient with centrifugation. The purity of the Leydig cells was >90%, as determined by histochemical staining for 3β-hydroxysteroid dehydrogenase. The cell viability, as assessed by trypan blue exclusion, was greater than 90%. […]
Testosterone concentrations in plasma, testes, and culture medium were measured by a previously described radioimmunoassay (Lue, et al., 2010) with a minimal detection limit of 0.1 ng/ml. […]

male germ cells = assay: TMZ-induced male germ cell apoptosis in SCID mice (TUNEL, Apoptosis Index); format: in vivo, mouse; details: 24 hours after last injection; TMZ 50 mg/Kg BW/day X 5 days; HNG 5 mg/Kg BW/day
Experimental: Onco-infertility is a major concern of cancer survivors. In this study, it was investigated whether HNG will prevent chemotherapy (Temozolomide, TMZ, an alkylating agent used clinically to treat brain tumors) induced male germ cell apoptosis in SCID mice bearing subcutaneous implants of human medulloblastoma. DAOY human pediatric medulloblastoma cells ([…] cells/animal) were injected subcutaneously into the right flank of 7-week old male SCID mice. After 3 weeks to allow tumor growth, each group of mice (n=4 to 5/group) received one of the following treatments: 1) vehicle (control); 2) HNG intra-peritoneal (IP) injection (HNG, 5 mg/Kg BW/day, 3 days pretreatment+5 days treatment); 3) TMZ IP injection (TMZ, 50 mg/Kg BW/day X 5 days); 4) TMZ and HNG IP injections (TMZ+HNG). Mice were sacrificed 24 hours after the last injection, subcutaneous tumors were dissected and weighed (FIG. 26) and male germ cell apoptosis was assessed by TUNEL staining and quantified (Apoptosis Index, AI, number of apoptotic germ cell/Sertoli cell, FIG. 27). […] HNG ameliorated TMZ-induced germ cell apoptosis without affecting the chemotherapeutic effect on transplanted medulloblastoma tumor in an immunocompromised mouse model.

SMILES: CC[C@H](C)[C@H](NC(=O)[C@H](CCC(=O)O)NC(=O)CNC(=O)[C@@H](NC(=O)[C@H](CC(C)C)NC(=O)[C@H](CC(C)C)NC(=O)[C@H](CC(C)C)NC(=O)[C@H](CC(C)C)NC(=O)[C@H](CS)NC(=O)[C@H](CO)NC(=O)[C@H](Cc1ccccc1)NC(=O)CNC(=O)[C@H](CCCNC(=N)N)NC(=O)[C@@H]1CCCN1C(=O)[C@H](C)NC(=O)[C@@H](N)CCSC)[C@@H](C)O)C(=O)N[C@@H](CC(=O)O)C(=O)N[C@@H](CC(C)C)C(=O)N1CCC[C@H]1C(=O)N[C@H](C(=O)N[C@@H](CCCCN)C(=O)N[C@@H](CCCNC(=N)N)C(=O)N[C@@H](CCCNC(=N)N)C(=O)N[C@@H](C)C(=O)O)C(C)C [HNG] (H-MAPRGFSCLLLLTGEIDLPVKRRA-OH; N-terminus and C-terminus assumed)
- cytotoxicity of combined treatment versus doxorubicin treatment alone (B16 melanoma cells): additive effect on the cytotoxicity
- level at 672 h (in vivo): 80.8 ± 7.8 ng/mL

SMILES: CC(=O)N1CCN(c2ccc(OCC3COC(Cn4ccnc4)(c4ccc(Cl)cc4Cl)O3)cc2)CC1 (centres unmarked) [KTZ, ketoconazole, reference compound]
- testosterone levels of cultured Leydig cells (Leydig cells): lowered the testosterone levels significantly

SMILES: Cn1nnc2c(C(N)=O)ncn2c1=O [TMZ, Temozolomide]
- Apoptosis Index (AI), apoptotic germ cell/Sertoli cell, early+late stages (male germ cells): 0.116±0.009
- Apoptosis Index (AI), apoptotic germ cell/Sertoli cell, middle stages (male germ cells): 0.058±0.006
